Results reported in US5683987A, “Therapeutic oligonucleotides targeting the human MDR1 and MRP genes” (The Board of Regents of the University of Nebraska, priority 1995, dated 1997).
Where “and” joins values, the source holds several entries; their conditions need not be identical. Identical values can stand only once. Like-named read-outs stand apart in the source and are kept apart here.

Legend:
[1] = test system: CEM/VLB10 human leukemia cells; experiment: Sensitization of CEM/VLB10 cells to Vincristine by MDR-oligos in 5% oxygen; assay type: cell-based; settings: 5% oxygen; for IC50: Vincristine IC50 after 4 days with 10 μM oligo, read-out: IC50 dose; for Relative sensitization (fold increase): to Vincristine, 10 μM oligo
Description: (§1) As shown in this example, several oligos which target the MDR1 gene are able to sensitize multidrug-resistant cell lines to the cytotoxic effects of the chemotherapeutic agent Vincristine. Tumor cells were treated in vitro with 10 μM of the indicated oligo for 4 days at 37° C., then counted, dispensed into individual tubes, and pulsed with Vincristine at various doses (serial 5-fold dilutions) for 3 hrs. The cells were then washed and seeded into 96-well plates (quadruplicate replicates) for pulsing with tritiated thymidine 3 days later. Cells were harvested the next day (=4th day after drug treatment). Tritiated thymidine uptake was analyzed by liquid scintillation.

[2] = test system: 8226/Dox human myeloma cells; experiment: Sensitization of 8226/Dox cells to Vincristine by MDR-oligos in 5% oxygen; assay type: cell-based; settings: 5% oxygen; for IC50: Vincristine IC50 after 4 days with 10 μM oligo, read-out: IC50 dose; for Relative sensitization (fold increase): to Vincristine, 10 μM oligo
Description: as §1

[3] = test system: 8226/Dox human myeloma cells; experiment: Sensitivity of 8226/Dox cells to Vincristine with increasing time after Vincristine exposure; assay type: cell-based; settings: for Relative Sensitization (fold increase) Day 5: Day 5 after Vincristine exposure; for Relative Sensitization (fold increase) Day 7: Day 7 after Vincristine exposure; for Relative Sensitization (fold increase) Day 9: Day 9 after Vincristine exposure
Description: as §1, with “Tumor cells were treated in vitro with 10 μM of the indicated oligo for 4 days at 37° C., then counted, dispensed into individual tubes, and pulsed with Vincristine at various doses (serial 5-fold dilutions) for 3 hrs.” left out
As shown in this example, it was determined that there was an increase in sensitivity of multidrug-resistant 8226/Dox human myeloma cells to Vincristine with increasing time of incubation following initial exposure to Vincristine. The experimental conditions were identical to those utilized in obtaining the data shown in Table 7, except that the present experiment had two additional time points.

[4] = test system: A427 human non-small-cell lung adenocarcinoma cell line; experiment: Sensitization of A427 lung cancer cells to etoposide by MRP-oligos; assay type: cell-based
Description: The human non-small-cell lung adenocarcinoma cell line A427 was treated with oligos at various concentrations for 4 days in vitro. The cells then were pulsed with various concentrations of etoposide (range 1.6×10^-4 to 1×10^-6 M) for 3 hrs. Next, cells were trypsinized and seeded by volume into 96-well plates with 12 replicates per treatment condition. Three days later, tritiated thymidine was added and the cells harvested the next day.

8226/Dox cells [5] = experiment: Sensitization of 8226/Dox cells to VCR by MDR-aptameric oligonucleotides; assay type: cell-based, human; settings: compared to media control
8226/Dox cells [6] = experiment: Sensitization of 8226/Dox cells to Vincristine by an MRP-oligo and MDR-ODNs; assay type: cell-based, human; settings: for IC50: Vincristine IC50 after oligo treatment, conditions as Example 2, read-out: IC50 dose; for Relative sensitization (fold increase): to Vincristine, vs medium only
Description: as §1
In this example, experimental conditions were identical to those utilized in obtaining the data in Example 2.

[7] = test system: 8226/Dox4 human myeloma cells; experiment: Vincristine IC50 summary after MDR-oligo treatment; assay type: cell-based; settings: oligo 0.2 μM; compared to media control
Description: (§2) In vitro testing of MDR-Oligonucleotides was done on the multidrug-resistant (MDR+) RPMI-8226/Dox4 human multiple myeloma cell line (gift of Dr. William Dalton, Univ. Arizona Cancer Ctr., Tucson). Cells were incubated in vitro for 4 days at 37° C. with MDR-oligos at 0.2 μM final concentration; pulsed 18 hr with serial 5-fold dilutions of chemotherapeutic drug (vincristine) from 1×10^-4 M to 2×10^-10 M. Cells were then washed, and incubated for an additional 4 days. Tritiated thymidine (^3 H-TdR) was added for last 18 hr to measure status of cellular proliferation. Controls included MDR^+ 8226 cells similarly treated with vincristine but pretreated either with (a) control ODNs, or (b) culture medium only.

8226/Dox4 cells = experiment: Parsimonious regression model estimates of count and Vincristine IC50; assay type: cell-based, human; settings: for Estimated Mean Count (cpm): 3H-TdR count at VCR Dose = 0, oligo alone, media only 159,500; for Fold Increase in drug sensitivity: compared to corresponding oligo control (no drug)
Description: as §2
The following mathematical/statistical model was used to analyze the effects of oligos and various drug treatments on targeted tumor cells in these studies. The model is based on experiments which generally involve treatment of tumor cells with one of several ODNs or media only, and with several dose levels of an anti-cancer agent (such as, for example, vincristine (VCR)) or media only. Analysis goals were to model the relationship of cell kill to the dose of VCR (for example), and to compare the effects of the various ODNs.
This final model contained 10 regressor variables.
Various estimates of parameters from the parsimonious model are shown in TABLE 13, which contains the model estimate of the count for each ODN with media only; differences here (when compared to "media only" [no ODN]) reflect the cell kill associated with the ODN alone. TABLE 13 also contains an estimate of IC50 values, the dose of vincristine (VCR) which is estimated to produce an expected count which is exactly half that expected with "media only" [no VCR]. While formal statistical comparisons of the IC50 values of the various ODNs is not possible, an ordering of the ODNs by estimated IC50 values is possible.

5(1)mdr: SEQ ID NO 10: CCCTACCTCGCGCTCCTTGGAACGGC (CCCTACCTCGCGCTCCTTGGAACGGC; chemistry not given here)
IC50 [1]: 90 nM | Relative sensitization (fold increase) [1]: 111 fold increase | IC50 [2]: 180 nM | Relative sensitization (fold increase) [2]: 2.5 fold increase | Relative Sensitization (fold increase) Day 5 ([3]; oligo 2 μM): 3.4 fold increase | Relative Sensitization (fold increase) Day 7 ([3]; oligo 2 μM): 26.9 fold increase | Relative Sensitization (fold increase) Day 9 ([3]; oligo 2 μM): 724 fold increase | Relative Sensitization (fold increase) Day 5 ([3]; oligo 10 μM): 2.1 fold increase | Relative Sensitization (fold increase) Day 7 ([3]; oligo 10 μM): 20.5 fold increase | Relative Sensitization (fold increase) Day 9 ([3]; oligo 10 μM): 423 fold increase

5(2)MRP: SEQ ID NO 43: CGGTGGCGCGGGCGGCGGCGGGCACC (CGGTGGCGCGGGCGGCGGCGGGCACC; chemistry not given here)
Etoposide (VP-16) Relative Sensitization (fold increase) ([4]; oligo 10 μM): 6 fold increase

5(3)MRP: SEQ ID NO 42: CGGCGGCGGCGGCGCAGGGAGCCGGG (CGGCGGCGGCGGCGCAGGGAGCCGGG; chemistry not given here)
Etoposide (VP-16) Relative Sensitization (fold increase) ([4]; oligo 10 μM): 5 fold increase

COc1cc([C@@H]2c3cc4c(cc3[C@@H](O[C@@H]3O[C@@H]5CO[C@@H](C)O[C@H]5[C@H](O)[C@H]3O)[C@H]3COC(=O)[C@H]23)OCO4)cc(OC)c1O [Etoposide (VP-16), etoposide, reference compound]
IC50 ([4]; Homo sapiens, A-427, read-out: Etoposide (VP-16) IC50, Media Control (no oligo)): 36000 nM | IC50 ([4]; read-out: Etoposide (VP-16) IC50, Media Control (no oligo)): 50000 nM and 60000 nM

CO[C@@H]1[C@@H](OC(N)=O)[C@@H](O)[C@H](Oc2ccc3c(O)c(NC(=O)c4ccc(O)c(CC=C(C)C)c4)c(=O)oc3c2C)OC1(C)C [Novobiocin, novobiocin, reference compound]
Etoposide (VP-16) Relative Sensitization (fold increase) ([4]; novobiocin used at the same time as VP-16): 5.0 fold increase | Etoposide (VP-16) Relative Sensitization (fold increase) ([4]; novobiocin used at the same time as VP-16, listed as novobiocin): about 5 fold increase

MDR-APT-1: MDR-aptameric oligonucleotide, SEQ ID NO 88: CCCCTGGCGTTACCTCCTCGTTTCT (CCCCTGGCGTTACCTCCTCGTTTCT; chemistry not given here)
Fold Increase in Drug Sensitization (8226/Dox cells [5]): 40,000 fold

OL(2)MRP: SEQ ID NO 49: CGGTGATGCT GTTCGTGCCC (CGGTGATGCTGTTCGTGCCC; chemistry not given here)
Etoposide (VP-16) Relative Sensitization (fold increase) ([4]; oligo 10 μM): 2.4 fold increase

OL(2)mdr: SEQ ID NO 35: GCAACCAGCA CCCCAGCACC (GCAACCAGCACCCCAGCACC; chemistry not given here)
IC50 [1]: 160 nM | Relative sensitization (fold increase) [1]: 62 fold increase | IC50 (8226/Dox cells [6]): 300 nM | Relative sensitization (fold increase) (8226/Dox cells [6]): 3.7 fold increase

OL(3)MRP: SEQ ID NO 62, position 2848: CCCTGGACCG CTGACGCCCG (CCCTGGACCGCTGACGCCCG; chemistry not given here)
Etoposide (VP-16) Relative Sensitization (fold increase) ([4]; oligo 10 μM): 5 fold increase

OL(3)mdr: SEQ ID NO 37: TGCCCACCAG AGCCAGCGTC (TGCCCACCAGAGCCAGCGTC; chemistry not given here)
IC50 [1]: 200 nM | Relative sensitization (fold increase) [1]: 50 fold increase | IC50 (8226/Dox cells [6]): 100 nM | Relative sensitization (fold increase) (8226/Dox cells [6]): 11 fold increase

OL(4)MRP: SEQ ID NO 76: CGATGCCGAC CTTTTCTCC (CGATGCCGACCTTTTCTCC; chemistry not given here)
Etoposide (VP-16) Relative Sensitization (fold increase) ([4]; oligo 1 μM): 3 fold increase

OL(5)MRP: SEQ ID NO 48: CTGCGGCCCG GAAAACATCA (CTGCGGCCCGGAAAACATCA; chemistry not given here)
Etoposide (VP-16) Relative Sensitization (fold increase) ([4]; oligo 10 μM): 6 fold increase

OL(5)mdr: SEQ ID NO 21: TCTGGACTTT GCCCGCCGCC (TCTGGACTTTGCCCGCCGCC; chemistry not given here)
IC50 [1]: 150 nM | Relative sensitization (fold increase) [1]: 67 fold increase

OL(6)MRP: SEQ ID NO 60: GGGCCAGGCT CACGCGCTGC (GGGCCAGGCTCACGCGCTGC; chemistry not given here)
Etoposide (VP-16) Relative Sensitization (fold increase) ([4]; oligo 10 μM): 8 fold increase

OL(6A)mdr: SEQ ID NO 2: GTGCTCAGCC CACGCCCCGG (GTGCTCAGCCCACGCCCCGG; chemistry not given here)
IC50 (8226/Dox cells [6]): 88 nM | Relative sensitization (fold increase) (8226/Dox cells [6]): 12.5 fold increase

OL(10)mdr: SEQ ID NO 11: GCTCCCAGCT TTGCGTGCCC (GCTCCCAGCTTTGCGTGCCC; chemistry not given here)
Fold-Increase in sensitivity to drug treatment [7]: 40 fold

OL(12)mdr: SEQ ID NO 12: GCGCGCTCCG GGCAACATGG (GCGCGCTCCGGGCAACATGG; chemistry not given here)
Fold-Increase in sensitivity to drug treatment [7]: 200 fold | Estimated Mean Count (cpm) (8226/Dox4 cells): 159,500 cpm | Fold Increase in drug sensitivity (8226/Dox4 cells): 233 fold

OL(12A)mdr: SEQ ID NO 13: CGCGCTCCGGGCAACATGGTCC (CGCGCTCCGGGCAACATGGTCC; chemistry not given here)
Fold-Increase in sensitivity to drug treatment [7]: 375 fold | Estimated Mean Count (cpm) (8226/Dox4 cells): 159,500 cpm | Fold Increase in drug sensitivity (8226/Dox4 cells): 414 fold

OL(12B)mdr: SEQ ID NO 14: CGCGCTCCGG GCAACATG (CGCGCTCCGGGCAACATG; chemistry not given here)
Fold-Increase in sensitivity to drug treatment [7]: 40 fold | Estimated Mean Count (cpm) (8226/Dox4 cells): 159,500 cpm | Fold Increase in drug sensitivity (8226/Dox4 cells): 17.3 fold

OL(14)MRP: SEQ ID NO 44: GCGGGTCGGA GCCATCGGCG (GCGGGTCGGAGCCATCGGCG; chemistry not given here)
Etoposide (VP-16) Relative Sensitization (fold increase) ([4]; oligo 10 μM): 3 fold increase

PA(1)mdr: SEQ ID NO 40: GCGGGAGGTGAGTCACTGTCTCC (GCGGGAGGTGAGTCACTGTCTCC; chemistry not given here)
IC50 [1]: 190 nM | Relative sensitization (fold increase) [1]: 53 fold increase | IC50 [2]: 28 nM | Relative sensitization (fold increase) [2]: 16 fold increase | Relative Sensitization (fold increase) Day 5 ([3]; oligo 2 μM): 2.3 fold increase | Relative Sensitization (fold increase) Day 7 ([3]; oligo 2 μM): 27 fold increase | Relative Sensitization (fold increase) Day 9 ([3]; oligo 2 μM): 1309 fold increase | Relative Sensitization (fold increase) Day 5 ([3]; oligo 10 μM): 6.3 fold increase | Relative Sensitization (fold increase) Day 7 ([3]; oligo 10 μM): 28 fold increase | Relative Sensitization (fold increase) Day 9 ([3]; oligo 10 μM): 550 fold increase

SJ(34)mdr: SEQ ID NO 5: TCGAATGAGC TCAGGCTTCC (TCGAATGAGCTCAGGCTTCC; chemistry not given here)
Fold-Increase in sensitivity to drug treatment [7]: 293 fold

SJ(34A)mdr: SEQ ID NO 6: TCGAATGAGC TCAGGCTT (TCGAATGAGCTCAGGCTT; chemistry not given here)
Fold-Increase in sensitivity to drug treatment [7]: > 7500 fold | Estimated Mean Count (cpm) (8226/Dox4 cells): 100,300 cpm | Fold Increase in drug sensitivity (8226/Dox4 cells): 188 fold

SJ(34C)mdr: SEQ ID NO 8: AGCTCAGGCT TCCTGTGGCA (AGCTCAGGCTTCCTGTGGCA; chemistry not given here)
Fold-Increase in sensitivity to drug treatment [7]: 2182 fold

SJ(36)mdr: SEQ ID NO 39: CCAGGGCTTCTTGGACAACCTA (CCAGGGCTTCTTGGACAACCTA; chemistry not given here)
IC50 [1]: 160 nM | Relative sensitization (fold increase) [1]: 62 fold increase
